Converted amounts (≈) assume the structure as drawn. “And” between values parts separate entries of the source, which are not always exact repeats. Equal entries are not always repeated. Where two headings read alike, the source gives them in different places.
Legend:
[1] = tested on: LPS-induced TNFα production by RAW 264.7 macrophages; assay: TNFα production assay, LPS-activated RAW 264.7 macrophages; format: cell-based; conditions: Mus musculus, RAW264.7
Protocol: (§1) Compound 1 was tested to determine specific anti-inflammatory characteristics. In vitro assays to assess the inhibition of substrate cleavage by matrix metalloproteinase 9 (MMP-9) and the inhibition of TNFα production by lipopolysaccharide (LPS)-activated macrophages were performed. MMP-9 activity was determined by fluorescence after incubation of recombinant MMP-9 with fluorescein-conjugated DQ gelatin for 90 min. TNFα production was determined by incubation of 10 ng/ml LPS with RAW264.7 macrophage cells for 24 h, followed by quantitation of TNFα in culture supernatant by ELISA.
(§2) The RAW 264.7 mouse macrophage cell line was grown to confluence in DMEM medium containing 10% fetal bovine serum (FBS). Cells were harvested into single-cell suspensions, seeded into 96-well plates at 1-2×10^5 cells/well (200 μL volume) and incubated (5% CO2, 37° C.) overnight. Compounds were added to the cells at final concentrations ranging from 50 to 1 μM and pre-incubated for 30 min. Lipopolysaccharide (LPS) was added to the cells at a final concentration of 10 ng/ml. After incubation for 20 hr, culture supernatants were harvested and transferred to a new 96-well plate. Levels of LPS-induced TNFα in the supernatants were quantified by ELISA (R & D Systems) with supernatants from unstimulated cells serving as a negative control.

[2] = tested on: animal models of MS and neuroprotection; assay: Accepted animal models of MS and neuroprotection (Table 2); parameters: concentration or dose not given beside the values; conditions: in vivo
[3] = tested on: E. coli; assay: Antibacterial activity, E. coli MIC; format: cell-based; conditions: Escherichia coli; Table 8
[4] = in vivo; conditions: for Kp at 0.5 hr / Kp at 1 hr / Kp at 2 hr / Kp at 4 hr / concentration at 0.5 hr / concentration at 1 hr / concentration at 2 hr / concentration at 4 hr: ip, 10 mg/kg
Protocol: Compounds were administered via the indicated routes and blood samples were removed at various times up to 24 hr. Concentration of compound was determined by LC/MS.

[5] = tested on: LPS-induced production of NO by J774A.1 macrophages; assay: NO production assay, LPS-activated J774A.1 macrophages; format: cell-based; conditions: Mus musculus, J774.A1; 10 ng/ml LPS, 20 hr
Protocol: as §2, with “J774A.1” for “RAW 264.7”, “suspensions (by incubation on ice and agitation),” for “suspensions,”, “1×10^5” for “1-2×10^5”, “1 hr.” for “30 min.”, “NO” for “TNFα”, “Greiss reagent (Active Motif)” for “ELISA (R & D Systems)”

[6] = molecular target: T1, recombinant human matrix metalloproteinase-9 (MMP-9) (Homo sapiens, UniProt P14780); assay: MMP-9 enzyme activity assay (cell-free); format: biochemical
T1 construct: an aliquot of active recombinant human matrix metalloproteinase-9 (MMP-9)(CalBioChem) was added; purchased CalBioChem
T1 sequence (P14780 107-707 limits assumed): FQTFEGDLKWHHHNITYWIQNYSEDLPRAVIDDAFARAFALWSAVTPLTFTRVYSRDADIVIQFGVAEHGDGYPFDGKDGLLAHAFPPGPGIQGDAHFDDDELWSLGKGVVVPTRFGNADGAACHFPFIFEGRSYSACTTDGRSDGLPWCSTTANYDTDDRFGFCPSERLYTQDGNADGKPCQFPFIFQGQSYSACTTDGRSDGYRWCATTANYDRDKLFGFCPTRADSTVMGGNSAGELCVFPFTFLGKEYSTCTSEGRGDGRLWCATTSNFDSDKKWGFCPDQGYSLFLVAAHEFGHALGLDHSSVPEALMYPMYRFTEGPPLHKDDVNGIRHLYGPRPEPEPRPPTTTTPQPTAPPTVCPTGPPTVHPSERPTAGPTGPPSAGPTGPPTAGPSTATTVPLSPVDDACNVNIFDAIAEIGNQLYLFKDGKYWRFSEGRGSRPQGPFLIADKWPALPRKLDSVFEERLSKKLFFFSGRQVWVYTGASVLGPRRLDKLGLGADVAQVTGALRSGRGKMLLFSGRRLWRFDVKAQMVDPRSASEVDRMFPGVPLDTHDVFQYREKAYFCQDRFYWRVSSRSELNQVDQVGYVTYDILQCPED
Protocol: as §1
This assay was designed to measure the degradation of substrate by purified enzyme. To a solution containing 2.5 μg/ml fluorescein-conjugated DQ gelatin (Invitrogen) in buffer (50 mM Tris-HCl, 150 mM NaCl, 5 mM CaCl2, 0.2 mM sodium azide, pH 7.6), tetracycline compounds were added at final concentrations ranging from 100 to 1 μM. Subsequently, an aliquot of active recombinant human matrix metalloproteinase-9 (MMP-9)(CalBioChem) was added to a final concentration of 0.05 μg/ml. The total volume of the reaction mixture was 200 μL and samples were contained in 96-well black plates (Corning). The mixture was incubated at room temperature in the dark for 85 min, after which the fluorescence was measured using a microplate reader. Samples containing no MMP-9 enzyme were used as negative controls and samples with enzyme and without compound were positive controls.

[7] = 10 ng/ml LPS, 20 hr, read-out: TNFα Production (RAW264.7) IC50
[8] = Table 4, unit inferred, read-out: TNFα production (RAW264.7)
[9] = Table 4, unit inferred, read-out: MMP-9 activity (cell-free)
[10] = Table 11, read-out: MMP-9 Activity (cell-free) IC50

SMILES: CCc1cc(N(C)C)c2c(c1O)C(=O)C1=C(O)[C@]3(O)C(=O)C(C(N)=O)=C(O)[C@@H](N(C)C)[C@@H]3C[C@@H]1C2 [Compound 1]
- IC50 [1, 7]: 10.9 ± 1.6 µM
- IC50 [1, 8]: 10.9 ± 1.6 µM
- % Inhibition Axon Loss [2]: 70%
- % Inhibition Clinical Score [2]: 65%
- % Inhibition Demyelination [2]: 69%
- % Inhibition Inflammation [2]: 74%
- MIC [3]: > 64 µg/mL
- AUC ([4]; monkey, iv, 5 mg/kg): 70 µM·h
- Cmax ([4]; monkey, iv, 5 mg/kg): 28.5 µM
- half-life ([4]; monkey, iv, 5 mg/kg): 5.7 h
- AUC ([4]; monkey, po, 5 mg/kg): 46.7 µM·h
- Cmax ([4]; monkey, po, 5 mg/kg): 8.6 µM
- Tmax ([4]; monkey, po, 5 mg/kg): 3 h
- bioavailability ([4]; monkey, po, 5 mg/kg): 66.9%
- Kp at 0.5 hr ([4]; mouse, in vivo): 0.179
- Kp at 1 hr ([4]; mouse, in vivo): 0.284
- Kp at 2 hr ([4]; mouse, in vivo): 0.568
- Kp at 4 hr ([4]; mouse, in vivo): 1.17
- concentration at 0.5 hr ([4]; mouse, in vivo): 6860 ng/mL and 1230 ng/g
- concentration at 1 hr ([4]; mouse, in vivo): 6360 ng/mL and 1810 ng/g
- concentration at 2 hr ([4]; mouse, in vivo): 7020 ng/mL and 3990 ng/g
- concentration at 4 hr ([4]; mouse, in vivo): 3680 ng/mL and 4310 ng/g
- half-life ([4]; rat): 3.5 h
- AUC ([4]; rat, iv, 5 mg/kg): 54.4 µM·h
- Cmax ([4]; rat, iv, 5 mg/kg): 27.9 µM
- AUC ([4]; rat, po, 5 mg/kg): 14.3 µM·h
- Cmax ([4]; rat, po, 5 mg/kg): 1.25 µM
- Tmax ([4]; rat, po, 5 mg/kg): 2 h
- bioavailability ([4]; rat, po, 5 mg/kg): 26%
- IC50 [5]: 30 µM
- IC50 [6, 9]: 29 µM
- IC50 [6, 10]: 32.7 µM

SMILES: CN(C)c1ccc(O)c2c1C[C@H]1C[C@H]3[C@H](N(C)C)C(O)=C(C(N)=O)C(=O)[C@@]3(O)C(O)=C1C2=O [Minocycline, minocycline, reference compound]
- IC50 [1, 7]: 47 µM
- IC50 [1, 8]: 47 µM
- % Inhibition Axon Loss [2]: 38%
- % Inhibition Clinical Score [2]: 40%
- % Inhibition Demyelination [2]: 34%
- % Inhibition Inflammation [2]: 43%
- MIC [3]: 1 µg/mL (≈ 2.19 µM)
- concentration at 0.5 hr ([4]; brain): 138 ng/g
- concentration at 1 hr ([4]; brain): 380 ng/g
- concentration at 2 hr ([4]; brain): 317 ng/g
- concentration at 4 hr ([4]; brain): 327 ng/g
- Kp at 0.5 hr ([4]; brain/plasma): 0.095
- Kp at 1 hr ([4]; brain/plasma): 0.253
- Kp at 2 hr ([4]; brain/plasma): 0.508
- Kp at 4 hr ([4]; brain/plasma): 0.688
- AUC ([4]; monkey, iv, 5 mg/kg): 55.8 µM·h
- Cmax ([4]; monkey, iv, 5 mg/kg): 29.9 µM
- half-life ([4]; monkey, iv, 5 mg/kg): 10.4 h
- AUC ([4]; monkey, po, 5 mg/kg): 44.6 µM·h
- Cmax ([4]; monkey, po, 5 mg/kg): 4.4 µM
- Tmax ([4]; monkey, po, 5 mg/kg): 3 h
- bioavailability ([4]; monkey, po, 5 mg/kg): 80.1%
- concentration at 0.5 hr ([4]; plasma): 1450 ng/mL
- concentration at 1 hr ([4]; plasma): 1500 ng/mL
- concentration at 2 hr ([4]; plasma): 623 ng/mL
- concentration at 4 hr ([4]; plasma): 475 ng/mL
- AUC ([4]; rat, iv, 1 mg/kg): 2.4 µM·h
- Cmax ([4]; rat, iv, 1 mg/kg): 0.93 µM
- half-life ([4]; rat, iv, 1 mg/kg): 3.6 h
- AUC ([4]; rat, po, 5 mg/kg): 3.6 µM·h
- Cmax ([4]; rat, po, 5 mg/kg): 0.4 µM
- Tmax ([4]; rat, po, 5 mg/kg): 1.7 h
- bioavailability ([4]; rat, po, 5 mg/kg): 30.7%
- IC50 [5]: 46 ± 2.1 µM
- IC50 [6, 9]: 43.2 µM
- IC50 [6, 10]: 43.2 µM

Reference: patent publication US20150174144A1, “TETRACYCLINE COMPOUNDS FOR TREATING NEURODEGENERATIVE DISORDERS” (PARATEK PHARMACEUTICALS, INC., priority 2012, published 2015)
